For data set [1], the system named is CD1 mice. The data set is described as follows: Anticonvulsant activity, nicotine induced seizures. The note with it: Mus musculus; po. It is filed as in vivo. On the procedure:
(§1) The anti-seizure activity of some of the compounds of the present invention was measured using the electroshock test (J. Pharmacol. Exp. Ther. 106:319 (1952)) and the results are shown in Table 3. The spasmolytic activity of the compounds of the present invention was investigated by using e.g., pentetrazole (J. Pharmacol. Exp. Ther. 108:168 (1953)), strychnine (J. Pharmacol. Exp. Ther. 129:75 (1960)), bemegrid, nicotine, bicuculline, 4-aminopyridine and mercapto-propionic acid for inducing the clonic-tonic seizures and lethality. The investigated compounds were administered orally in three doses using 10 male CD1 mice/dose, usually 60 min before the induction of seizures.

The test system of data set [2] is CD1 mice. The data set is described as follows: Anticonvulsant activity, bicuculline induced seizures. It is filed as in vivo. The note with it: Mus musculus; po.; read-out: Bicuculline ED50. On the procedure:
as §1

The test system of data set [3] is CD1 mice. The data set is described as follows: Anticonvulsant activity, pentetrazole induced seizures. It is filed as in vivo. The note with it: Mus musculus; po.; read-out: Pentetrazol ED50. On the procedure:
as §1

The test system of data set [4] is CD1 mice. Kind of data set: Anticonvulsant activity, strychnine induced seizures. The format is in vivo. The note with it: Mus musculus; po.; read-out: Strychnine ED50. On the procedure:
as §1

Data set [5] concerns CD1 mice. The data set is described as follows: Anticonvulsant activity, 4-aminopyridine induced seizures. The format is in vivo. The note with it: Mus musculus; po.; read-out: 4-AP ED50. On the procedure: as §1
Data set [6] has as its system CD1 mice. The data set is described as follows: Anticonvulsant activity, maximal electroshock seizure (MES) test. The note with it: Mus musculus, 1 h; po., 60 min before induction; read-out: MES (MES 60′) ED50. It is filed as in vivo. On the procedure: as §1
In general terms: Protection in the maximal electroshock model is a classic sign of anticonvulsant action.

Data set [7] deals with CD1 mice. Kind of data set: Anticonvulsant activity, bemegride induced seizures. It is filed as in vivo. The note with it: Mus musculus; po.; read-out: Bemegride ED50. As to the method: as §1
The test system of data set [8] is CD1 mice. Kind of data set: Muscle relaxant activity, rotarod test. It is filed as in vivo. The note with it: Mus musculus, ip.
Data set [9] relates to CD1 mice. The data set is described as follows: Anticonvulsant activity, 3-mercapto-propionic acid induced seizures. The format is in vivo. The following applies: Mus musculus; po.; read-out: 3-MPA ED50. On the procedure: as §1
Data set [10] concerns CD1 mice. Kind of data set: Muscle relaxant activity, inclined screen test. The note with it: Mus musculus, ip. The format is in vivo.
The test system of data set [11] is rats. Kind of data set: Inhibition of focal ischemia, middle cerebral artery occlusion (MCAO) test. The format is in vivo. As to the method:
The focal anti-ischemic activity of the compounds of formula (I) or (II) of the present invention was measured by the “middle cerebral artery occlusion” (MCAO) test (Bartus Stroke 11:2265 (1994) and Sydserff et al, Brit. J. Pharmacol. 114:1631 (1995)). […] After a histological process (TTC staining) 24 h later, the infarcted area was determined by a computer assisted scanner program and was compared to the results obtained in a control group treated with the vehicle.

Results on 19 molecules are retold here after US20070027143A1, “Novel substituted 2,3-benzodiazepine derivatives” (priority 2003, published 2007).

As usually defined, the ED50 is the dose that gives a 50% effect, or the effect in half of the subjects. The term melting point denotes the temperature of the solid-liquid transition.

Where a name gives a salt, the structure may show the parent alone. Marks after values point to notes of the source that are not given here.

Take `CCc1nnc(N2N=C(c3ccc(N)cc3)c3cc4c(cc3C[C@H]2C)OCO4)s1` [Example 89, (R)-5-(4-Aminophenyl)-7-(5-ethyl-1,3,4-thiadiazol-2-yl)-8-methyl-8,9-dihydro-7H-1,3-dioxolo-[4,5-h][2,3]benzodiazepine]: the melting point was in the range of 142 to 144 °C. This molecule also gave an ED50 in [1] of 45.9 mg/kg. Further, the ED50 in data set [2] came to 17.1 mg/kg. In data set [3], the ED50 was found to be 11.5 mg/kg. Besides, in data set [4], the ED50 came out at 15.7 mg/kg. Besides, the ED50 in data set [5] came to 14.3 mg/kg. The ED50 in [6] was found to be 10.5 mg/kg. In [7], the ED50 was determined as 11.2 mg/kg. Further, the ED50 in data set [8] is 1.7 mg/kg. For the same molecule, in data set [9], the ED50 was greater than 50 mg/kg. In data set [10], this molecule yielded an ED50 of 4.3 mg/kg.

`Cc1nnc(N2N=C(c3ccc(N)cc3)c3cc4c(cc3C[C@H]2C)OCO4)o1` [Example 102, (R)-5-(4-Aminophenyl)-8-methyl-7-(5-methyl-1,3,4-oxadiazol-2-yl)-8,9-dihydro-7H-1,3-dioxolo-[4,5-h][2,3]benzodiazepine] yielded a melting point of 145 to 149 °C. Besides, it took a dose of 31.7 mg/kg to reach the 50% effect level in data set [1] (ED50). In addition, the ED50 in data set [2] came out at 25.8 mg/kg. The ED50 in data set [3] stood at 35.7 mg/kg. Also, the ED50 in data set [4] stood at 26.7 mg/kg. For the same molecule, in [5], the ED50 stood at 20.4 mg/kg. Besides, the ED50 in [6] came to 13.9 mg/kg. Moreover, in data set [7], the ED50 is 27.9 mg/kg. This molecule displayed an ED50 in [8] of 2.9 mg/kg. Further, the ED50 in data set [9] is greater than 50 mg/kg. In [10], the 50% effect level (ED50) was put at a dose of 14.8 mg/kg.

Regarding `Cc1cc(C2=NN(c3nnc(C(C)C)s3)[C@H](C)Cc3cc4c(cc32)OCO4)ccc1N` [Example 169, (R)-5-(4-Amino-3-methylphenyl)-7-(5-isopropyl-1,3,4-thiadiazol-2-yl)-8-methyl-8,9-dihydro-7H-1,3-dioxolo[4,5-h][2,3]benzodiazepine], the melting point lay within 134 to 140 °C.

On to `Cc1cc(C2=NN(c3nnc(CO)s3)[C@H](C)Cc3cc4c(cc32)OCO4)ccc1N` [Example 171, (R)-5-(4-Amino-3-methylphenyl)-7-(5-hydroxymethyl-1,3,4-thiadiazol-2-yl)-8-methyl-8,9-dihydro-7H-1,3-dioxolo[4,5-h][2,3]benzodiazepine], for which the melting point lay within 184 to 186 °C.

On to `CC(=O)OCc1nnc(N2N=C(c3ccc(N)c(C)c3)c3cc4c(cc3C[C@H]2C)OCO4)s1` [Example 172, (R)-7-(5-Acetoxymethyl-1,3,4-thiadiazol-2-yl)-5-(4-amino-3-methylphenyl)-8-methyl-8,9-dihydro-7H-1,3-dioxolo[4,5-h][2,3]benzodiazepine], for which the melting point lay in the range of 204 to 206 °C.

For the molecule `Cc1cc(C2=NN(c3nnc(CC#N)s3)[C@H](C)Cc3cc4c(cc32)OCO4)ccc1N` [Example 173, (R)-5-(4-Amino-3-methylphenyl)-7-(5-cyanomethyl-1,3,4-thiadiazol-2-yl)-8-methyl-8,9-dihydro-7H-1,3-dioxolo[4,5-h][2,3]benzodiazepine], the melting point was 135 to 140 °C.

As for `CSCc1nnc(N2N=C(c3ccc(N)c(C)c3)c3cc4c(cc3C[C@H]2C)OCO4)s1` [Example 174, (R)-5-(4-Amino-3-methylphenyl)-8-methyl-7-(5-methylthiomethyl-1,3,4-thiadiazol-2-yl)-8,9-dihydro-7H-1,3-dioxolo[4,5-h][2,3]benzodiazepine], the melting point is 177 to 180 °C.

For the molecule `CCOC(=O)c1nnc(N2N=C(c3ccc(N)c(C)c3)c3cc4c(cc3C[C@H]2C)OCO4)s1` [Example 175, (R)-5-(4-Amino-3-methylphenyl)-7-(5-ethoxycarbonyl-1,3,4-thiadiazol-2-yl)-8-methyl-8,9-dihydro-7H-1,3-dioxolo[4,5-h][2,3]benzodiazepine], the melting point lay within 135 to 140 °C.

For `Cc1cc(C2=NN(c3nnc(CN)s3)[C@H](C)Cc3cc4c(cc32)OCO4)ccc1N` [Example 176, (R)-5-(4-Amino-3-methylphenyl)-7-(5-aminomethyl-1,3,4-thiadiazol-2-yl)-8-methyl-8,9-dihydro-7H-1,3-dioxolo[4,5-h][2,3]benzodiazepine], the melting point was in the range of 139 to 140 °C.

`C/C=C/c1nnc(N2N=C(c3ccc(N)c(C)c3)c3cc4c(cc3C[C@H]2C)OCO4)s1` [Example 177, (R)-5-(4-Amino-3-methylphenyl)-8-methyl-7-{5-[1-(1E)-propen-1-yl]-1,3,4-thiadiazol-2-yl}-8,9-dihydro-7H-1,3-dioxolo[4,5-h][2,3]benzodiazepine] yielded a melting point of 139 to 143 °C.

On to `CCCCCCc1nnc(N2N=C(c3ccc(N)c(C)c3)c3cc4c(cc3C[C@H]2C)OCO4)s1` [Example 178, (R)-5-(4-Amino-3-methylphenyl)-7-(5-hexyl-1,3,4-thiadiazol-2-yl)-8-methyl-8,9-dihydro-7H-1,3-dioxolo[4,5-h][2,3]benzodiazepine], for which the melting point is 180 to 181 °C.

As for `C[C@@H]1Cc2cc3c(cc2C(c2ccc(N)cc2)=NN1c1nnco1)OCO3` [Example 180, (R)-5-(4-Aminophenyl)-8-methyl-7-(1,3,4-oxadiazol-2-yl)-8,9-dihydro-7H-1,3-dioxolo[4,5-h][2,3]benzodiazepine], the melting point is 187 to 190 °C.

`Cc1nnc(N2N=C(c3ccc(N)c(C)c3)c3cc4c(cc3C[C@H]2C)OCO4)o1` [Example 181, (R)-5-(4-Amino-3-methylphenyl)-8-methyl-7-(5-methyl-1,3,4-oxadiazol-2-yl)-8,9-dihydro-7H-1,3-dioxolo[4,5-h][2,3]benzodiazepine] came in with a melting point of 140 to 145 °C.

Consider `COCc1nnc(N2N=C(c3ccc(N)c(Cl)c3)c3cc4c(cc3C[C@H]2C)OCO4)s1` [Example 183, (R)-5-(4-Amino-3-chlorophenyl)-8-methyl-7-(5-methoxymethyl-1,3,4-thiadiazol-2-yl)-8,9-dihydro-7H-1,3-dioxolo[4,5-h][2,3]benzodiazepine], for which the melting point fell in the range of 105 to 109 °C.

Molecule `C[C@@H]1Cc2cc3c(cc2C(c2ccc(N)cc2)=NN1c1cnns1)OCO3` [Example 186, (R)-5-(4-Aminophenyl)-8-methyl-7-(1,2,3-thiadiazol-5-yl)-8,9-dihydro-7H-1,3-dioxolo-[4,5-h][2,3]benzodiazepine] had a melting point of 220 to 221 °C.

Regarding `Cc1cc(C2=NN(c3nccs3)[C@H](C)Cc3cc4c(cc32)OCO4)cc(C)c1N` [Example 189, (R)-5-(4-Amino-3,5-dimethylphenyl)-8-methyl-7-(thiazol-2-yl)-8,9-dihydro-7H-1,3-dioxolo-[4,5-h][2,3]benzodiazepine], the melting point lay in the range of 202 to 203 °C.

With `Cc1nnc(N2N=C(c3cc(C)c(N)c(C)c3)c3cc4c(cc3C[C@H]2C)OCO4)s1` [Example 190, (R)-5-(4-Amino-3,5-dimethylphenyl)-8-methyl-7-(5-methyl-1,3,4-thiadiazol-2-yl)-8,9-dihydro-7H-1,3-dioxolo[4,5-h][2,3]benzodiazepine], the melting point lay within 280 to 281 °C.

In turn, `Cc1nnc(N2N=C(c3cc(C)c(N)c(C)c3)c3cc4c(cc3C[C@H]2C)OCO4)o1` [Example 191, (R)-5-(4-Amino-3,5-dimethylphenyl)-8-methyl-7-(5-methyl-1,3,4-oxadiazol-2-yl)-8,9-dihydro-7H-1,3-dioxolo[4,5-h][2,3]benzodiazepine] had a melting point of 148 to 150 °C.

On to `CC1=NN=C(c2ccc(N)cc2)c2cc3c(cc2C1)OCO3` [GYKI 52466 HCl, 5-(4-aminophenyl)-8-methyl-9H-1,3-dioxolo[4,5-h][2,3]benzodiazepine, reference compound], for which the “Decrease of the infracted area in % compared to that of the control” value in data set [11] (2 mg/kg iv. 6x in every 30 min, first treatment 120 min after occlusion) is on record as 39* %; in data set [11] (5 mg/kg iv. 6x in every 30 min, first treatment 30 min after occlusion), 34* %; in data set [11] (5 mg/kg iv. 6x in every 30 min, first treatment 120 min after occlusion), 47** %.
